Test results: the NIST ThermoML archive (doi:10.1021/je700648c)
Values joined by “and” are separate entries in the source; they are usually repeats but may differ in a detail not shown here. Equal entries are not always repeated.

How the values were obtained:
[1] = xn = mol fraction of the nth substance listed; conditions: 101 kPa, Liquid
[2] = 101 kPa, Liquid

CCn1cc[n+](C)c1.COCCOCCOS(=O)(=O)[O-] [1-ethyl-3-methylimidazolium 2-(2-methoxyethoxy) ethylsulfate] + CO
[1], 298.15 K
Conditions	speed of sound [m/s]
x2 = 0.1791	1677.6
x2 = 0.356	1647
x2 = 0.4548	1620
x2 = 0.5356	1597.2
x2 = 0.6298	1563.6
x2 = 0.7412	1499.4
x2 = 0.7987	1453.2
x2 = 0.8527	1387.5
x2 = 0.9011	1324.8
x2 = 0.9298	1270.8
x2 = 0.962	1201.2
x2 = 0.9829	1158

CCn1cc[n+](C)c1.O=S(=O)([N-]S(=O)(=O)C(F)(F)C(F)(F)F)C(F)(F)C(F)(F)F
[2]
Conditions	mass density
298.15 K	1593.2 kg/m3
303.15 K	1587.6 kg/m3 and 1587.3 kg/m3
313.15 K	1576.7 kg/m3

CO [methanol] + CCn1cc[n+](C)c1.O=S(=O)([N-]S(=O)(=O)C(F)(F)C(F)(F)F)C(F)(F)C(F)(F)F
[1], x1 = 1
Conditions	mass density [kg/m3]
298.15 K	786.6
303.15 K	781.9
313.15 K	772.6

CC(C)=O [acetone]
[2]
Conditions	mass density [kg/m3]
298.15 K	784.1
303.15 K	778.4
313.15 K	766.9

CCn1cc[n+](C)c1.O=S(=O)([N-]S(=O)(=O)C(F)(F)C(F)(F)F)C(F)(F)C(F)(F)F + CO
mass density [kg/m3], [1]
Conditions	x2 = 0	x2 = 0.0584	x2 = 0.1116	x2 = 0.1686	x2 = 0.2956	x2 = 0.5104	x2 = 0.6083	x2 = 0.706	x2 = 0.8237	x2 = 0.9033
298.15 K	1593.2	1586.2	1579.4	1571.3	1549.7	1494.6	1455.3	1398.9	1285.9	1148.2
303.15 K	1587.6	1580.5	1573.7	1565.6	1544	1488.9	1449.6	1393.2	1280.2	1142.6
313.15 K	1576.7	1569.5	1562.6	1554.5	1532.8	1477.7	1438.3	1382	1269.3	1132

CC(C)=O [acetone] + CCn1cc[n+](C)c1.O=S(=O)([N-]S(=O)(=O)C(F)(F)C(F)(F)F)C(F)(F)C(F)(F)F
[1], x1 = 1
Conditions	mass density [kg/m3]
298.15 K	784.1
303.15 K	778.4
313.15 K	766.9

CCn1cc[n+](C)c1.O=S(=O)([N-]S(=O)(=O)C(F)(F)C(F)(F)F)C(F)(F)C(F)(F)F + CC(C)=O
mass density [kg/m3], [1]
Conditions	298.15 K	303.15 K	313.15 K
x2 = 0	1593.2	1587.3	1576.7
x2 = 0.0807	1576.8	1571.1	1560.2
x2 = 0.1417	1563.1	1557.4	1546.4
x2 = 0.2521	1534.6	1528.8	1517.7
x2 = 0.2791	1526.6	1520.8	1509.6
x2 = 0.415	1479.2	1473.3	1462.2
x2 = 0.5195	1431.8	1425.8	1414.8
x2 = 0.5676	1405.5	1399.5	1388.4
x2 = 0.7092	1303.1	1297.2	1285.7
x2 = 0.755	1258.2	1252.2	1240.8
x2 = 0.8137	1188.4	1182.5	1170.8
x2 = 0.8927	1062	1055.9	1044.3
x2 = 0.9502	935	929.1	917.6
